Source: patent US12551532B2, “Long-acting amylin receptor agonists and uses thereof” (Eli Lilly and Company, priority 2021, dated 2026)
Starred links: 1 amine or outer side, 2 acyl side, 3 side chain; linkers in the order of their positions; H or OH if unused. Positions of bridges follow the written chain, without caps; N, C: chain ends. Non-standard residues stand in square brackets, D forms with d. Residues, ends and D or L forms follow the SMILES beside them. Groups on a side chain read outwards from the residue. *: point of attachment. C20 diacid = O=C(O)CCCCCCCCCCCCCCCCCCC(=O)*; γGlu = O=C(O)[C@H](CCC(=O)[*:2])N[*:1]; αMeL = CC(C)C[C@](C)(N)C(=O)O; Orn = NCCC[C@H](N)C(=O)O; CH2 = C([*:1])[*:2]

Experiments:
[1] = target: T1, human CT receptors (Homo sapiens, UniProt P30988); assay: hCTR cAMP functional activity (HTRF); type: cell-based; settings: ±SE; UMUC3 cells overexpressing hCTR; relative EC50
T1 construct: expressed in transfected cells
T1 sequence (P30988 25-474): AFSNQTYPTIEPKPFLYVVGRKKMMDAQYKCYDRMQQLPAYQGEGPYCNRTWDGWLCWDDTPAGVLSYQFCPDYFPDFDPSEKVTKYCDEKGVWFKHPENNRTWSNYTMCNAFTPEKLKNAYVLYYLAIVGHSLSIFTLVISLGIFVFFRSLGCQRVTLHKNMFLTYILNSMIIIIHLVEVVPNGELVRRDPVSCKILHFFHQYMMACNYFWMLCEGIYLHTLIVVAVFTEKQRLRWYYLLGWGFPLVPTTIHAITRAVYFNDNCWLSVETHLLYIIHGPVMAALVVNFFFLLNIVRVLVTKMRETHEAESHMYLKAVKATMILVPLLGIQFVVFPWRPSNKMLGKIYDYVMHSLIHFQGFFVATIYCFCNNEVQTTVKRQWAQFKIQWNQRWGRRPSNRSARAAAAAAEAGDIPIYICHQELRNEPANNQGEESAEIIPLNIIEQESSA
Method in brief: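 UM-UC-3 bladder cells stably overexpressing human CT receptor, 1200 cells/well, exposed to peptides in 1:3 dilution series for 1 h at room temperature. Intracellular cAMP measured by HTRF after 60 min lysis/detection, converted to pmol/well from a per-experiment cAMP standard curve.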

[2] = target: T2, human calcitonin receptor (hCTR) (Homo sapiens, UniProt P30988); assay: hCTR competitive radioligand binding filter assay (125I-hCT); settings: ± SE; membranes of hCTR overexpressing cells
T2 construct: expressed in transfected cells; host or cells: membranes of UM-UC-3 (UMUC3) cells stably expressing human CTa
T2 sequence (P30988 25-474): T1 sequence (P30988 25-474)
Description: The equilibrium dissociation constants (Kd) for the various receptor/radioligand interactions are determined from saturation binding analysis using the same reagents and buffers as described below for compound testing.
The receptor binding affinity (Ki) of rAMY, hCT, and hAMY agonist peptides on hCTR membranes is determined from a competitive radioligand binding filter assay.

[3] = Pharmacokinetics in male Sprague Dawley rats; type: in vivo; settings: single SC 30 nmol/kg, mean
Description: (§1) The pharmacokinetics of Compound II (SEQ ID NO:2), Compound IV (SEQ ID NO:4), Compound VI (SEQ ID NO:6), and Compound VIII (SEQ ID NO:8) are evaluated following a single subcutaneous administration of 30 nmol/kg to male Sprague Dawley rats. Blood samples are collected at 1, 3, 6, 12, 24, 48, 72, 96 hours post SC dose. The resulting individual plasma concentrations are used to calculate pharmacokinetic parameters. Peptide plasma (K3EDTA) concentrations are determined using a qualified LC/MS method that measured the intact mass of the peptides. Each peptide and an analog as an internal standard are extracted from plasma. A high resolution Thermo Q-Exactive is used for LC/MS detection.

[4] = Pharmacokinetics in male cynomolgus monkeys; type: in vivo; settings: single SC 20 nmol/kg, mean
Description: as §1, with “20” for “30”, “cynomolgus monkeys.” for “Sprague Dawley rats.”, “120, 168, 240, 336, 408, 504” for “96”

[5] = tested on: pre-existing antibodies (ADA) in normal human serum; assay: Pre-existing reactivity (ACE assay format); settings: >50 donors; treatment-naive normal human serum
Description: This assay assesses the presence of pre-existing antibodies (ADA) against the tested molecules in treatment-naive normal human serum (NHS). Diluted NHS is incubated overnight on a Pierce Streptavidin plate coated with biotinylated tested molecules. On the following day, the captured binding proteins are acid eluted, hard-coated to a Mesoscale (MSD) plate, and detected with a combination of biotin-labeled molecule and ruthenium-labeled streptavidin. If anti-drug antibodies are present, they will bind the labeled drug and the resulting signal is referred to as Tier 1 signal (expressed as electrochemiluminescence). This signal is confirmed in Tier 2 by adding excess unlabeled tested molecule in the detection step, which results in the suppression of the Tier 1 signal. The presence of pre-existing anti-drug antibodies is expressed as magnitude of the 90th percentile of Tier 2 inhibition. The 90th percentile of Tier 2 inhibition, is a statistical tool to assess the magnitude of specificity of Tier 1 reactivity. This 90th percentile is used to rank molecules in terms of ADA risk.

[6] = male, cynomolgus monkey, plasma, n = 3

CC[C@H](C)[C@H](NC(=O)[C@@H]1CCCN1C(=O)CNC(=O)[C@H](Cc1ccccc1)NC(=O)[C@H](CC(N)=O)NC(=O)[C@H](Cc1c[nH]cn1)NC(=O)[C@H](CO)NC(=O)[C@H](CO)NC(=O)[C@H](CCCNC(=N)N)NC(=O)[C@@H](NC(=O)[C@H](CC(C)C)NC(=O)[C@H](Cc1ccccc1)NC(=O)[C@H](CCC(=O)O)NC(=O)[C@H](C)NC(=O)[C@](C)(CC(C)C)NC(=O)[C@H](CCCN)NC(=O)CNC(=O)[C@@H](NC(=O)[C@H](C)NC(=O)[C@@H]1CSCSC[C@H](NC(=O)[C@@H](N)CCCCNC(=O)CC[C@H](NC(=O)CC[C@H](NC(=O)CCCCCCCCCCCCCCCCCCC(=O)O)C(=O)O)C(=O)O)C(=O)N[C@@H](CCC(=O)O)C(=O)N[C@@H]([C@@H](C)O)C(=O)N[C@@H](C)C(=O)N[C@@H]([C@@H](C)O)C(=O)N1)[C@@H](C)O)C(C)C)C(=O)N[C@@H](CC(C)C)C(=O)N1CCC[C@H]1C(=O)N1CCC[C@H]1C(=O)N[C@H](C(=O)N[C@@H](CCC(=O)O)C(=O)N[C@H](C(=O)NCC(=O)N[C@@H](CO)C(=O)N[C@@H](CC(N)=O)C(=O)N[C@H](C(=O)N[C@@H](Cc1ccc(O)cc1)C(N)=O)[C@@H](C)O)C(C)C)[C@@H](C)O [Compound VIII] (H-K([γGlu-γGlu-C20 diacid])CETATCATG[Orn][αMeL]AEFLVRSSHNFGPILPPTEVGSNTY-NH2; linker 2-7 via CH2)
EC50 [1]: 0.00969 ± 0.00201 µM | Ki [2]: 0.927 ± 0.12 µM | CL/F ([3]; rat, plasma, n = 3): 3.7 mL/h/kg | Tmax ([3]; rat, plasma, n = 3): 16 ± 6.9 h | half-life ([3]; rat, plasma, n = 3, read-out: T l/2 (converted)): 36.4 ± 2.93 h | AUCINF/D ([3]; n = 3): 270 ± 22.4 hr * kg * nmol/L/nmol | Cmax/D ([3]; n = 3): 3.8 ± 0.4 kg * nmol/L/nmol | CL/F [4, 6]: 1.07 mL/h/kg | Tmax [4, 6]: 28 ± 18.3 h | half-life ([4]; male, cynomolgus monkey, plasma, n = 3, read-out: T½ (converted)): 62 ± 4.7 h | AUCINF/D ([4]; n = 3): 942 ± 67 hr * kg * nmol/L/nmol | Cmax/D ([4]; n = 3): 7.2 ± 0.3 kg * nmol/L/nmol | Pre-existing Reactivity 90th percentile T2 inhibition [5]: 51.4%
